Test results from patent publication US7412284B2, “Apparatus for electroporation mediated delivery for drugs and genes” (Genetronics, Inc., priority 1997, dated 2008).
Entries after “also recorded” stand apart in the source; their conditions may differ. Marks after values point to notes of the source that are not given here.

Columns and labels:
[1] = test system: poorly differentiated human pancreatic tumor (Panc-3); experiment: EPT with bleomycin of Panc-3 tumors xenografted in nude mice; assay type: in vivo, nude mouse; settings: for Complete Regression (100%), number of mice / Death, number of mice / No Response, number of mice / Partial Regression (≧80%), number of mice / Tumor regrowth, number of mice: of 25 mice treated; for Tumor volume (mm^3) T1: treated mouse T1; for Tumor volume (mm^3) T2: treated mouse T2
Method: The single treatment procedure involved injection of bleomycin (0.5 units in 0.15 ml saline) intratumorally, using fanning, as described herein followed by application of six square wave electrical pulses, ten minutes later, using needle array electrodes as described in the present application, arranged along the circumference of a circle 1 cm in diameter. Needle array of variable diameters (e.g., 0.5 cm, 0.75 cm and 1.5 cm can also be used to accommodate tumors of various sizes. Stoppers of various heights can be inserted at the center of the array to make the penetration depth of the needles into the tumor variable. A built-in mechanism allowed switching of electrodes for maximum coverage of the tumor by the pulsed field. The electrical parameters were: 780 V/cm center field strength and 6×99 μs pulses spaced at 1 sec interval.
The tumor cell line Panc-3, a poorly differentiated adenocarcinoma cell line of the pancreas, was supplied by AntiCancer, Inc., San Diego. For EPT experiments, tissue taken from the stock mice, where the tumor line was maintained, was thawed and cut into very small pieces about 1 mm each, and 8-10 pieces were surgically xenografted in a subcutaneous sac made in left flank of nude mice, and then closed with 6.0 surgical suture. […] The tumor dimensions were measured and the tumor volume calculated using the formula: (II/6)×a×b×c where a, b, and c a are, respectively, the length, width and thickness of the tumor. 0.5 units Bleomycin (Sigma Chemicals) was dissolved in 0.15 ml of 0.9% NaCl and was injected in each mice intratumorally by fanning for both the control (D+E−) and the treated (D+E+) groups. Ten minutes after the injection, each mouse in the D+E+ group was pulsed from a BTX T820 square wave electroporator with a set of needle array electrodes as described in the present invention. Electrical parameters used were as follows: field strength 1300 V/cm, 6 pulses of 99 μs each, at 1 sec interval.
The mice were monitored every day for mortality and any signs of a diseased state were noted. The tumor dimensions were measured at regular intervals and tumor growth regression/progression monitored.

[2] = cited from earlier work
[3] = test system: PC-3 (human prostate cell line); experiment: MedPulser 4 vs 6 needle array in vitro, XTT cell survival; assay type: cell-based; settings: bleomycin at 2×10^5 M, 20 hours
Method: Experiments were carried out to compare the efficacy of 6 vs. 4 needle array with MedPulser™ on PC-3 (human prostate cell line) in vitro. Cells were suspended in RPMI media and seeded uniformly at 200,000 cells/ml. Bleomycin at […] was added to the wells (for D+E− and D+E+ only). Cells were electroporated in 24 well plates using the 6-needle and 4-needle array electrodes connected to the MedPulser. The electropulse parameters were 6×99 μs, 1129 V with the 6-needle array and 4×99 μs, 848 V with the 4-needle array. The cells were transferred to 96 well plates and incubated for 20 hours at 37° C. The cell survival was determined using XTT assay which is based on metabolic conversion of XTT to formazan and is measured spectrophotometrically at 450 nm. Only the cells which are live convert XTT to formazan. The percent cell survival values are relative values calculated from the O.D. values of the sample, a control with 100% cell survival (D−E−) and control with 0% cell survival (D−E− with SDS, which lyses all cells).

[4] = test system: Human pancreatic xenograft (Panc-4); experiment: EPT using MedPulser and bleomycin, Panc-4 xenograft; assay type: in vivo, nude mice; settings: up to day 39 of observation
Text: Preliminary experiments using MedPulser™ (apparatus of the invention) for treatment of tumor xenografts grown subcutaneously onto nude mice have shown encouraging results. […] Treatment of human prostate xenografts (PC-3) has also shown about 66% complete regression of tumors. (No tumors observed up to 60 days after treatment). Both 4 and 6 needle array are effective in treatment of tumors by EPT.

bleomycin
treated mice with no response ([1]; 2/25): 8%
treated mice that died ([1]; 20 days after treatment, 1/25): 4%
treated mice with partial (>80%) regression ([1]; 28 days following treatment, 5/25): 20%
treated mice with complete tumor regression ([1]; 28 days following treatment, 17/25): 68%
mice with tumor regrowth ([1]; 35 days after treatment, at a much slower rate): 8%
histology of tumor samples ([1]; D+E+ group, 35 days after the treatment): necrotic tumor cell ghosts; also recorded: severe necrosis of the tumor region
histology of samples from tumor site ([1]; after 120 days): complete absence of tumor cells
cases with no palpable tumor ([1]; after 120 days of the treatment, 16/25): 64%
necrosis and edema at the treatment site ([1]; bleomycin 0.5 units intratumoral + pulses): severe necrosis and edema in nearly all the mice
tumor volume ([1]; control group D+E− (drug, no pulsing)): increased dramatically
Complete Regression (100%), number of mice ([1]; 28 days after treatment): 17
Death, number of mice ([1]; 28 days after treatment): 1
No Response, number of mice ([1]; 28 days after treatment): 2
Partial Regression (≧80%), number of mice ([1]; 28 days after treatment): 5
Complete Regression (100%), number of mice ([1]; 35 days after treatment): 16
No Response, number of mice ([1]; 35 days after treatment): 2
Partial Regression (≧80%), number of mice ([1]; 35 days after treatment): 3
Complete Regression (100%), number of mice ([1]; 57 days after treatment): 16
Partial Regression (≧80%), number of mice ([1]; 57 days after treatment): 3
Tumor regrowth, number of mice ([1]; 57 days after treatment): 2
No Response, number of mice ([1]; 57 days after treatment, footnote a: mice sacrificed due to increased tumor burden): 1^a
Complete Regression (100%), number of mice ([1]; 84 days after treatment): 16
No Response, number of mice ([1]; 84 days after treatment): 1
Partial Regression (≧80%), number of mice ([1]; 84 days after treatment): 3
Death, number of mice ([1]; 84 days after treatment, 1 died after treatment, 1 with no palpable tumor died after 64 days): 2^b
Complete Regression (100%), number of mice ([1]; 94 days after treatment): 16
No Response, number of mice ([1]; 94 days after treatment): 1
Partial Regression (≧80%), number of mice ([1]; 94 days after treatment): 3
Tumor regrowth, number of mice ([1]; 94 days after treatment, footnote d: secondary metastatic tumor): 1^d
Complete Regression (100%), number of mice ([1]; 120 days after treatment): 16
Partial Regression (≧80%), number of mice ([1]; 120 days after treatment, footnote e: fibrous tissue): 3^e
time monitored to be without tumors ([1]; representative animals (2/17), then euthanized): 243 days
tumor volume ([1]; treated group D+E+ (drug + electrical field)): substantial reduction in the tumor volume
detectable tumor ([1]; treated mice, after approximately 24 days): essentially no detectable tumor
Tumor volume (mm^3) T1 ([1]; 0 days after treatment): 123.110 mm^3
Tumor volume (mm^3) T1 ([1]; 1 day after treatment): 210.950 mm^3
Tumor volume (mm^3) T1 ([1]; 8 days after treatment): 104.550 mm^3
Tumor volume (mm^3) T1 ([1]; 15 days after treatment): 113.210 mm^3
Tumor volume (mm^3) T1 ([1]; 18 days after treatment): 161.730 mm^3
Tumor volume (mm^3) T1 ([1]; 24 days after treatment): 41.560 mm^3
Tumor volume (mm^3) T1 ([1]; 28 days after treatment): 0 mm^3
Tumor volume (mm^3) T1 ([1]; 35 days after treatment): 0 mm^3
Tumor volume (mm^3) T1 ([1]; 38 days after treatment): 0 mm^3
Tumor volume (mm^3) T1 ([1]; 43 days after treatment): 0 mm^3
Tumor volume (mm^3) T2 ([1]; 0 days after treatment): 178.370 mm^3
Tumor volume (mm^3) T2 ([1]; 1 day after treatment): 252.720 mm^3
Tumor volume (mm^3) T2 ([1]; 8 days after treatment): 211.110 mm^3
Tumor volume (mm^3) T2 ([1]; 15 days after treatment): 226.966 mm^3
Tumor volume (mm^3) T2 ([1]; 18 days after treatment): 246.910 mm^3
Tumor volume (mm^3) T2 ([1]; 24 days after treatment): 47.223 mm^3
Tumor volume (mm^3) T2 ([1]; 28 days after treatment): 0 mm^3
Tumor volume (mm^3) T2 ([1]; 35 days after treatment): 0 mm^3
Tumor volume (mm^3) T2 ([1]; 38 days after treatment): 0 mm^3
Tumor volume (mm^3) T2 ([1]; 43 days after treatment): 0 mm^3
log P (P being the partition coefficient between octanol and water) [2]: very negative
Avg. % Survival ([3]; D + E + (4N), 4×99 μs, 848 V, 4-needle array): 4.78%
Avg. % Survival ([3]; D + E + (6N), 6×99 μs, 1129 V, 6-needle array): −4.12%
Avg. % Survival ([3]; D + E −, no pulse): 27.71%
mice with complete tumor regression [4]: about 75%
